In article PMC11997890, “In Vivo and In Vitro Pharmacokinetic Studies of a Dual Topoisomerase I/II Inhibitor” (ACS Pharmacology & Translational Science, 2025):
pIC50: −log10 of the molar value.

Columns and labels:
CYP3A4 = target: T1, CYP3A4 (Homo sapiens, UniProt P08684); assay: Conversion of P8-D6 by recombinant CYP3A4; assay type: in vitro ADME
T1 construct: host or cells: human liver microsomes (one value) / recombinant CYP enzyme (other value)
Description: (§1) P8-D6 N-oxide was the most common metabolite for all incubations with subcellular fractions from the homogenized tissue. According to the detected MS-MS fragments (supplied as Supporting Information Chapter 2), it resulted from N-oxygenation of the nitrogen at the side chain since the unmodified fragment of P8-DO (m/z = 414.1) was detected. Furthermore, the detected fragment at m/z = 440.1 is most likely a carbocation at the remaining ethyl chain after splitting off the dimethylamine N-oxide further strengthening the theory of selectively forming this specific N-oxide. In addition, no relevant chemical shifts in the aromatic range of the ^1H NMR compared to P8-D6 and mono were observed (supplied as Supporting Information Chapter 2). Thus, no chemical modifications can have occurred on the aromatic rings, and all changes must therefore affect the side chain. […] To determine which enzymes were responsible for the conversion, seven recombinant CYP 450 isoenzymes recommended by the FDA’s “Guidance for Industry” and human FMO3 were used.
Among the recombinant enzymes, P8-D6 is mostly metabolized to P8-D6 mono by CYP3A4 (0.34%, significant compared to any other enzyme, p < 0.0001) and 2D6 (0.17%, significant compared to 2C8, 1A2, 2C19, and 2C9, p < 0.005) (Figure E). […]

human FMO3 = human FMO3 (Homo sapiens, UniProt P31513); assay: Conversion of P8-D6 by recombinant FMO3; assay type: in vitro ADME; conditions: seven recombinant CYP isoenzymes and human FMO3
Description: as §1
For all phase I metabolism studies (except cell cultures), a 0.3 mL reaction mixture consisting of 1 mM substrate (P8-D6, P8-D6 mono, P8-D6 N-oxide), 1 mM NADPH as a cofactor, 0.67 mg/mL protein from homogenized tissue or subcellular fractions, respectively (except recombinant enzymes, where 0.5 mg/mL was used), and PBS buffer (pH 7.4) was used. […]

CYP2D6 = target: T2, CYP2D6 (Homo sapiens, UniProt P10635); assay: In vitro CYP inhibition, marker substrate dextromethorphan; assay type: in vitro ADME
T2 construct: host or cells: human liver microsomes (one value) / recombinant CYP enzyme (other value)
T2 sequence (P10635 whole entry): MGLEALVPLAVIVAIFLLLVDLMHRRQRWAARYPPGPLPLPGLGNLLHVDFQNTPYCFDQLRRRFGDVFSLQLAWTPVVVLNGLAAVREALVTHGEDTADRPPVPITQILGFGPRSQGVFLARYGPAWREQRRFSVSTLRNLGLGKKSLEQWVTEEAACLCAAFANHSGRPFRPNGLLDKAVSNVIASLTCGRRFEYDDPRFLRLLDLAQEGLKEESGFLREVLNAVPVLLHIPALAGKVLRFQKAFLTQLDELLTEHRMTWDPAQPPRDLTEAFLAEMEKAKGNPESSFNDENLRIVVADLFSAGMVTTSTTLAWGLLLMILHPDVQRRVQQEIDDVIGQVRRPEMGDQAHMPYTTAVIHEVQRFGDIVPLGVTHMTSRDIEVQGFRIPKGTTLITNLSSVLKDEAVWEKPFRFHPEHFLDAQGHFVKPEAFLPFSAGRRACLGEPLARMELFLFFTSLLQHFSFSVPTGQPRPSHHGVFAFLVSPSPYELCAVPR
Description: (§2) To assess metabolizing enzyme-mediated drug interactions, P8-D6 was incubated with human liver (HLM) or recombinant CYP enzymes and the respective marker substrate according to the FDA (with the exception of using amitriptyline instead of S-mephenytoin). −
(§3) However, as some conversions were catalyzed by several enzymes, the conversion rates in HLM increased (e.g., bupropion and diclofenac).
(§4) To examine a possible in vitro CYP inhibition, the following CYP enzymes and marker substrates were investigated according to the FDA: , phenacetin (CYP1A2), bupropion (CYP2B6), amodiaquine (CYP2C8), diclofenac (CYP2C9), amitriptyline (CYP2C19), dextromethorphan (CYP2D6), testosterone (CYP3A4), and nifedipine (CYP3A4). Incubation was performed in a 0.2 mL reaction mix consisting of PBS buffer (pH 7.4), 1 mM marker substrate, 1 mM NADPH, and either 0.5 mg/mL recombinant CYP enzyme or human liver microsomes. P8-D6 was added for a final concentration of 0.5 μM, 1 μM, 5 μM, 10 μM, 25 μM, 50 μM, 100 μM, 500 μM, 1000 μM, and (in some cases) 5000 μM. Sample preparation was performed according to in vitro biotransformation.

CYP2C19 = target: T3, CYP2C19 (Homo sapiens, UniProt P33261); assay: In vitro CYP inhibition, marker substrate amitriptyline; assay type: in vitro ADME
T3 construct: host or cells: human liver microsomes (one value) / recombinant CYP enzyme (other value)
T3 sequence (P33261 whole entry): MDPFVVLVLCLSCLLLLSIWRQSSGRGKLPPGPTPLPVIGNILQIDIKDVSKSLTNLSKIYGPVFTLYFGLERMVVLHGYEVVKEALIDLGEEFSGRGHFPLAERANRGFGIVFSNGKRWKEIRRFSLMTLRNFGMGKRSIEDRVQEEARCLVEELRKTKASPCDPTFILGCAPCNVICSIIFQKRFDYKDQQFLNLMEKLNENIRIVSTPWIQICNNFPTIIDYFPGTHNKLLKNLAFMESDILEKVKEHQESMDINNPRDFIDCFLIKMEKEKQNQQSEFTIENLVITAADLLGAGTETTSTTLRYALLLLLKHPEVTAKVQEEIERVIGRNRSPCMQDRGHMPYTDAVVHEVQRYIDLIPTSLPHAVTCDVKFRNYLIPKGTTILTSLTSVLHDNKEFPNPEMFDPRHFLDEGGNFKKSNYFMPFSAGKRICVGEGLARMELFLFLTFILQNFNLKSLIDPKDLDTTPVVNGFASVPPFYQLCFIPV
Description: as §2, §3, §4

human transferrin = target: T4, human transferrin (Homo sapiens, UniProt P02787); assay: Binding to isolated plasma protein by ultrafiltration
T4 construct: purchased Merck KGaA, Darmstadt T8158
T4 sequence (P02787 20-698): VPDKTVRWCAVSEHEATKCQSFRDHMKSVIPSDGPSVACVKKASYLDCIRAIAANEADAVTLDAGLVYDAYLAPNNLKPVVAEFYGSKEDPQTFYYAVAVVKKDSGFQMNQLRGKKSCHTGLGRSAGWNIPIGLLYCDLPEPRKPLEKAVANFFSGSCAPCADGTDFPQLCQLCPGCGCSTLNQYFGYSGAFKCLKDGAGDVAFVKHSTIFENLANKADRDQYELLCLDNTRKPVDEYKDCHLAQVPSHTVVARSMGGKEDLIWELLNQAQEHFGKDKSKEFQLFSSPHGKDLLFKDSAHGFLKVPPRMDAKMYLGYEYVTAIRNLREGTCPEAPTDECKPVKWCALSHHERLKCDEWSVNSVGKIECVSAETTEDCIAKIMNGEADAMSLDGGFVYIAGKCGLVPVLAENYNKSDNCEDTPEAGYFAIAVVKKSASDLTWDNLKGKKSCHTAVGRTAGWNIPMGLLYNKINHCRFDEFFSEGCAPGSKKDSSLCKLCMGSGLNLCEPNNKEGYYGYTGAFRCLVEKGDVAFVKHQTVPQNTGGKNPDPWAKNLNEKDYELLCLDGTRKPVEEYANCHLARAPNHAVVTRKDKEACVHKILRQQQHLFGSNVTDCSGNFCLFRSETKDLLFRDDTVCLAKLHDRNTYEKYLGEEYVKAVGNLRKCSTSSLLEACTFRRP
Description: (§5) To examine the effect of the P8-D6 plasma protein binding on the in vivo bioavailability, human and rat plasma was spiked in vitro and incubated with P8-D6. By using ultrafiltration to separate free P8-D6 from the protein-bound fraction, a plasma protein binding of 99% (Figure A) was estimated. However, neither human α-1-microglobulin (3.06%) nor human serum albumin (0.91%) is responsible for binding. According to initial findings, γ-globulins (94.59%), human transferrin (90.43%), LDL (87.99%), human α2-HS glycoprotein (85.29%), and human fibrinogen (78.89%) lead to binding of P8-D6.
(§6) To examine the extent of plasma protein binding, 150 μL of blank samples of human plasma (1 mM) and rat plasma (1 mM), human albumin (1 mM, #A1653, Merck KGaA, Darmstadt); human α1-acid glycoprotein (1 mM; #G9885, Merck KGaA, Darmstadt); human α2-HS-glycoprotein (0.1 mM; #G0516, Merck KGaA, Darmstadt); human transferrin (0.2 mM; #T8158, Merck KGaA, Darmstadt); human fibrinogen (0.2 mM; #F3879, Merck KGaA, Darmstadt); LDL (0.2 mM; […]); and human γ-globulin (1 mM; #G4386, Merck KGaA, Darmstadt) were spiked with P8-D6 in the same final concentration as the protein and incubated in a shaking water bath at 37 °C for 120 min. Afterward, the unbound fraction of P8-D6 was separated by ultrafiltration (Vivaspin 500 10 000 MWCO filter). The sample preparation was performed according to plasma samples. Blank plasma samples served as the control samples.

human α2-HS glycoprotein = target: T5, human α2-HS glycoprotein (Homo sapiens, UniProt P02765); assay: as above
T5 construct: purchased Merck KGaA, Darmstadt G0516
T5 sequence (P02765 19-367): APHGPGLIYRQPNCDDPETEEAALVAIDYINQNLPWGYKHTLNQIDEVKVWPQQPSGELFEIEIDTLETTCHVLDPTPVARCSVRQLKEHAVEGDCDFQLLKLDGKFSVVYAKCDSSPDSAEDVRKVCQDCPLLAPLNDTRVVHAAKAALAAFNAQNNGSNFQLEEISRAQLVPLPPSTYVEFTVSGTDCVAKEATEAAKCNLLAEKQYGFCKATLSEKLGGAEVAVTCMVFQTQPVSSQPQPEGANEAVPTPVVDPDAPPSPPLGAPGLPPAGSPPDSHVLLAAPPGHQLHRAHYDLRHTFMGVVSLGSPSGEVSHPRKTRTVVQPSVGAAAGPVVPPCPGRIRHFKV
Description: as §5, §6

LDL = assay: as above
Description: as §5, §6

human serum albumin = target: T6, human serum albumin (Homo sapiens, UniProt P02768); assay: as above
T6 construct: purchased Merck KGaA, Darmstadt A1653
T6 sequence (P02768 25-609): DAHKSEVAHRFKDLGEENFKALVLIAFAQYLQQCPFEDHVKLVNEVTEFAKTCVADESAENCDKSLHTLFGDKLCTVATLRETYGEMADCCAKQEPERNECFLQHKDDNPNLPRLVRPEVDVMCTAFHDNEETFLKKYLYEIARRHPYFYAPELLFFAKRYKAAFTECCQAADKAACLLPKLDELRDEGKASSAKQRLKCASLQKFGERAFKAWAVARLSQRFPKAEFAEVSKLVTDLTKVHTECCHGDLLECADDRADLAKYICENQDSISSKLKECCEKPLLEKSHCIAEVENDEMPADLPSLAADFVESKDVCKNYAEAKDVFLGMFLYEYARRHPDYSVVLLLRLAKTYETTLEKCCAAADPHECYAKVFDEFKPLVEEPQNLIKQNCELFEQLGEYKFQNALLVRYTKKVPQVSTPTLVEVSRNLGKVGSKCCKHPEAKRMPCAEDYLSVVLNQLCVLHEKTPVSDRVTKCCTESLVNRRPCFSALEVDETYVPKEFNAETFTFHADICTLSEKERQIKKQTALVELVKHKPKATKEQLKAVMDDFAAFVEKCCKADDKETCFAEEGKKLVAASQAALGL
Description: as §5, §6

human fibrinogen = target: T7, human fibrinogen (Homo sapiens, UniProt P02671+P02675+P02679); assay: as above
T7 construct: purchased Merck KGaA, Darmstadt F3879
T7 sequence (P02671 20-629 limits assumed): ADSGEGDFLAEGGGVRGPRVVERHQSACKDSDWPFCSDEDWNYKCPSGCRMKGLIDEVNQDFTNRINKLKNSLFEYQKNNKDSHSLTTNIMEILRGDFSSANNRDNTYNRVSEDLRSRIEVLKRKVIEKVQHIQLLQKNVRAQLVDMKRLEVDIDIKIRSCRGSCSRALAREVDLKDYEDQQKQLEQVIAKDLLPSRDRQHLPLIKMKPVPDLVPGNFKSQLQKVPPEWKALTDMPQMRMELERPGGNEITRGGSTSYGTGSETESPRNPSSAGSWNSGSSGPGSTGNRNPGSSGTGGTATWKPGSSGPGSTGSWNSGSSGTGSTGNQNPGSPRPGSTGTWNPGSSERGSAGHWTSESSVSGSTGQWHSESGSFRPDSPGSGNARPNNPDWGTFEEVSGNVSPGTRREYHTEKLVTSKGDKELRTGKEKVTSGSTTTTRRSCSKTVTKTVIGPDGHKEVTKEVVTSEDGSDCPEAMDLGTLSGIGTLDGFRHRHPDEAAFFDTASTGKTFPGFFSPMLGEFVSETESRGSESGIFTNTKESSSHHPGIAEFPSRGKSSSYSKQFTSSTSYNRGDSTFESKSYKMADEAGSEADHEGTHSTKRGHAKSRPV
T7 sequence (P02675 31-491): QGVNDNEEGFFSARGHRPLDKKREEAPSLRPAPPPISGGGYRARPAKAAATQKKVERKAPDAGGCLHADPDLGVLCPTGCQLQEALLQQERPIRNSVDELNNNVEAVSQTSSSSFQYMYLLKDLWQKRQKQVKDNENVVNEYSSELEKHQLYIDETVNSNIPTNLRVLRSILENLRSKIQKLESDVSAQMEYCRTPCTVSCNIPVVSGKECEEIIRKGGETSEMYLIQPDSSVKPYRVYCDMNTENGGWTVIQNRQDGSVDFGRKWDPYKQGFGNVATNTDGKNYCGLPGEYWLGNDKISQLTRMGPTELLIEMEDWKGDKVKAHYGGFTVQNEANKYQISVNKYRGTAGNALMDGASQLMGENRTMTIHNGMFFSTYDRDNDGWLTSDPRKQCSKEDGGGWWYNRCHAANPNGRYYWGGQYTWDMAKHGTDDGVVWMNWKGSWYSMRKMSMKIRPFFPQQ
T7 sequence (P02679 27-433 limits assumed): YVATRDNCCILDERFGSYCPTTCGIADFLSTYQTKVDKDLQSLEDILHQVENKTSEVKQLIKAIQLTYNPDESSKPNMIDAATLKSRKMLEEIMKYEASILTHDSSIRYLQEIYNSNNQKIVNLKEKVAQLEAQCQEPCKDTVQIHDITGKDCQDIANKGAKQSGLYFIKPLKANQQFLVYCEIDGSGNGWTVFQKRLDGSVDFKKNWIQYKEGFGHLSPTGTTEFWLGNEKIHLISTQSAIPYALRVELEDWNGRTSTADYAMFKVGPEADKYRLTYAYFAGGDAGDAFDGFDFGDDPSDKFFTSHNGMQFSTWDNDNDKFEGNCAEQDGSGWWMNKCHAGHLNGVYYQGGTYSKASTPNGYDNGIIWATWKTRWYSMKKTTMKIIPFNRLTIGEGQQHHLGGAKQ
Description: as §5, §6

human = target: T8, human (Homo sapiens, UniProt P02763); assay: as above
T8 construct: purchased Merck KGaA, Darmstadt G9885
T8 sequence (P02763 19-201): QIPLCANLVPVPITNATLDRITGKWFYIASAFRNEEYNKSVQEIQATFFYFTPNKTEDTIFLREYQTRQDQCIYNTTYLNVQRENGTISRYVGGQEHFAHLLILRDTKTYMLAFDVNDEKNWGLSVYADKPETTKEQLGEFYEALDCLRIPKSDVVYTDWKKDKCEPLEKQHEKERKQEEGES
Description: as §5, §6

[1] = mice; ref not given; cited from earlier work
γ-globulins = assay: Binding to isolated plasma protein by ultrafiltration; design: species or system human
Description: as §5
as §6, with “Blank plasma samples served as the control samples.” left out

T1 sequence (P08684 whole entry): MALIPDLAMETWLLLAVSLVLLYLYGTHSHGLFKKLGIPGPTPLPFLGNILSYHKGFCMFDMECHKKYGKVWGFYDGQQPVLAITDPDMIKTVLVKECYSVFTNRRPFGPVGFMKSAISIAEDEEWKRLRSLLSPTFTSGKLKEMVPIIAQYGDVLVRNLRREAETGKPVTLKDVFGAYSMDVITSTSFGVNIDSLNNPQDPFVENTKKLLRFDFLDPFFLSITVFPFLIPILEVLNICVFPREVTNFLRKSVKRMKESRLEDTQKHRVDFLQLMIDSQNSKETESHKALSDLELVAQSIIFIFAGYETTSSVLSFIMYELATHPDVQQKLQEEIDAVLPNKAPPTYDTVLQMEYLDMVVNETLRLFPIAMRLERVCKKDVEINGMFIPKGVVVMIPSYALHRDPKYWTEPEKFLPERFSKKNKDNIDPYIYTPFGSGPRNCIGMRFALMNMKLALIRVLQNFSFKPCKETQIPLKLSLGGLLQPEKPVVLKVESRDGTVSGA

## CNCCOc1nc2c3cnccc3cc(-c3cc(OC)c(OC)c(OC)c3)c2c2ccncc12 [P8-D6 mono]
CYP3A4
  formation of metabolite from P8-D6: 0.34%

## COc1cc(-c2cc3ccncc3c3nc(OCC[N+](C)(C)[O-])c4cnccc4c23)cc(OC)c1OC [P8-D6 N-oxide]
Human FMO3
  formation of metabolite from P8-D6 by recombinant enzymes: only with FMO3

## COc1cc(-c2cc3ccncc3c3nc(OCCN(C)C)c4cnccc4c23)cc(OC)c1OC [P8-D6, 6-(N,N-dimethyl-2-aminoethoxy)-11-(3,4,5-trimethoxyphenyl)-pyrido[3,4-c][1,9]-phenanthroline]
CYP2D6; HLM
  pIC50: 3.55
CYP2D6; recombinant CYP isoenzyme
  pIC50: 3.78
CYP2C19; HLM
  pIC50: 3.83
CYP2C19; recombinant CYP isoenzyme
  pIC50: 3.10
Human transferrin
  binding of P8-D6: 90.43%
Human α2-HS glycoprotein
  binding of P8-D6: 85.29%
LDL
  binding of P8-D6: 87.99%
Human serum albumin
  binding of P8-D6: 0.91%
Human fibrinogen
  binding of P8-D6: 78.89%
human
  binding of P8-D6: 3.06%
[1]
  maximum tolerated dose: 5 mg/kg BW
γ-globulins
  binding of P8-D6: 94.59%
